# Data published in patent US20050054620A1, “Paricalcitol as a chemotherapeutic agent” (priority 2003, published 2005).
# Entries after “also recorded” stand apart in the source; their conditions may differ.
# Key:
# NCI-H929 cells [1] = assay: TUNEL assay of apoptosis; format: cell-based, human; details: for apoptotic cells by TUNEL assay: 0.01 μM each, 3 days
# Method: In FIG. […] Results represent the mean±SD of three independent experiments. A TUNEL assay was performed for immunohistochemical detection and quantification of programmed cell death at the single cell level, based on labeling of DNA strand breaks using the In Situ Cell Death Detection, POD (Roche, Indianapolis, Ind.). Early apoptosis was also detected by measuring annexin V protein in the cell membrane using Annexin V-FITC Kit (CLONTECH, Palo Alto, Calif.) followed by flow cytometric analysis.
# wild type U937 cells = assay: CD14 expression by flow cytometry; format: cell-based, human; details: paricalcitol 0.01 μM, arsenic trioxide 0.4 μM
# From the text: To examine the association between the presence of the fusion protein and the effect of the combination treatment, an engineered U937 monocytic leukemia cell line (PR9) that has stable integration of the PML-RARa cDNA under the control of the Zn^2+-inducible murine metallothionein 1 promoter was used. Also used were U937 cells transfected with the MT vector (B41) as a control.
# HL-60 cells = assay: CD14 expression by flow cytometry; format: cell-based, human; details: for cell surface CD14 expression: paricalcitol 0.01 μM, arsenic trioxide 0.8 μM, 3 days
# Method: In order to measure cell surface CD14 antigen on HL-60 cells, promyelocytic leukemia cell line, HL-60, was treated with either 1,25(OH)2D3 or paricalcitol (10^−7M) for 4 days and examined for CD14 expression by flow cytometry using CD14 antibody (DAKO, Carpinteria, Calif.), as described previously (Hisatake et al., supra, 2001). Murine IgG1 antibody (DAKO) was used as a control.
# Measurement of cell surface CD14 antigen on HL-60 cells by flow cytometry using CD14 antibody (DAKO, Carpinteria, Calif.), was determined as described previously (Hisatake et al. Blood 97:2427-2433 (2001)). Murine IgG1 antibody (DAKO) was used as a control.
# 24-hydroxylase [2] = target: T1, 24-hydroxylase (Homo sapiens, UniProt Q07973); assay: 24-hydroxylase activity by level of 24.25(OH)2D3 in HL-60 cells; format: cell-based; parameters: endogenous in cells; host or cells: HL-60; details: paricalcitol 0.01 μM, arsenic trioxide 0.8 μM, 3 days
# T1 sequence (Q07973 36-514): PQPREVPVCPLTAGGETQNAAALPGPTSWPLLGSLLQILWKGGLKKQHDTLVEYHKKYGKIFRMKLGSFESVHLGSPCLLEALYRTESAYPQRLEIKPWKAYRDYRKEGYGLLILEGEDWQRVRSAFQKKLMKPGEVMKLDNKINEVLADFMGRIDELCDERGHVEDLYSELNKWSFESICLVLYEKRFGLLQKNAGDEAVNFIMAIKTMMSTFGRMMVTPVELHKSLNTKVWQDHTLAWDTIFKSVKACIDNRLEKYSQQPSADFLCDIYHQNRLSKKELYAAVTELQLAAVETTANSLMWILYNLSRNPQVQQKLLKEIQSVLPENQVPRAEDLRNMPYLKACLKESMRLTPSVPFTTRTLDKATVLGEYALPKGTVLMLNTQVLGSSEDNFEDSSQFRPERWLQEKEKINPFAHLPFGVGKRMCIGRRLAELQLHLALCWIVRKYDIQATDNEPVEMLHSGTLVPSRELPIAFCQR
# Method: (§1) HL-60 (A) and NB-4 (B) myeloid leukemia cell lines were treated with paricalcitol (0.01 μM for HL-60, 0.1 μM for NB-4) and/or arsenic trioxide (0.8 μM for HL-60, 0.6 μM for NB-4) for 3 days. Control cells were treated with vehicle alone. The levels of 24.25(OH)2D3 were measured by HPLC analysis.
# (§2) The possibility that the arsenic trioxide inactivates the mitchondrial enzyme, 24-hydroxylase leading to an activation of the response of the cells to vitamin D was tested. The activity of 24-hydroxylase was examined by measuring its metabolite, 24.25(OH)2D3 by TLC analysis in leukemia cells. HL-60 and NB-4 myeloid leukemia cell lines were treated with paricalcitol (0.01 μM for HL-60, 0.1 μM for NB-4) and/or arsenic trioxide (0.8 μM for HL-60, 0.6 μM for NB-4) for 3 days. Control cells were treated with vehicle alone. Then the levels of 24.25(OH)2D3 were measured by TLC analysis. Paricalcitol alone increased the levels of 24.25(OH)2D3 in HL-60 and NB-4, while arsenic trioxide alone decreased its level compared to control cells (FIG. 11). […] The decrease of the levels of 24-hydroxylase by arsenic trioxide may explain the enhanced activity of paricalcitol by arsenic trioxide in leukemia cells.
# NCI-H929 cells [3] = assay: Cell cycle analysis by flow cytometry; format: cell-based, human; details: for G0/G1 arrest / accumulation / sub-G1 population: 0.01 μM each, 3 days
# Method: For cell cycle analysis, cells were exposed to 10^−7M 1,25(OH)2D3, 10^−7M paricalcitol or vehicle control for either 3 or 4 days. Total cells, both in suspension and adherent, were collected, washed, suspended in cold PBS. Then cells were fixed in 75% chilled methanol and stained with propidium iodine. Cell cycle status was analyzed on a Becton Dickinson Flow Cytometer.
# HCI-H929 cells were cultured with either paricalcitol (10^−7M) or 1,25(OH)2D3 (10^−7M) for 72 hrs, harvested and stained with propidium iodine (PI). Control cells were treated with vehicle alone.
# NB-4 cells [4] = assay: CD14 expression by flow cytometry; format: cell-based, human; details: paricalcitol 0.1 μM, arsenic trioxide 0.6 μM, 3 days
# [5] = system: NB-4 myeloid leukemia cells; assay: MTT assay; format: cell-based, human; details: 4 days exposure
# NB-4 cells [6] = assay: Cell cycle analysis by flow cytometry (sub-G1); format: cell-based, human; details: paricalcitol 0.1 μM and/or arsenic trioxide 0.6 μM, 4 days, control 4%
# Method: Cell cycle analysis was performed as follows: after treatment of 5×10^4 of cells with a selected compound, cells were collected, washed and suspended in cold PBS. Cells were fixed in chilled 75% methanol and stained with propidium iodine. Cell cycle status was analyzed on a Becton Dickinson Flow Cytometer used standart protocols.
# 24-hydroxylase [7] = target: T1, 24-hydroxylase; assay: 24-hydroxylase activity by level of 24.25(OH)2D3 in NB-4 cells; format: cell-based; parameters: endogenous in cells; details: paricalcitol 0.1 μM, arsenic trioxide 0.6 μM, 3 days
# Method: as §1, §2
# [8] = system: HL-60 myeloid leukemia cells; assay: MTT assay; format: cell-based, human; details: 4 days exposure
compound,measurement,setting,value
"C[C@H](/C=C/[C@H](C)C(C)(C)O)[C@H]1CC[C@H]2/C(=C/C=C3C[C@@H](O)C[C@H](O)C3)CCC[C@]12C [paricalcitol, 19-nor-1,25, (OH)2D3]",apoptotic cells by TUNEL assay,NCI-H929 cells [1],increased
same,apoptotic cells (TUNEL),"NCI-H929 cells [1]; 10^−7M, 96 hrs, diluant control 4%",31%
same,CD14 expressing cells,wild type U937 cells,increased CD14 expressing monoicytic cells
same,cells induced to express CD14,"HL-60 cells; 10^−7M, 96 hrs",65%
same,cell surface CD14 expression,HL-60 cells,increased cell surface CD14
same,levels of 24.25(OH)2D3,24-hydroxylase [2],increased
same,G0/G1 arrest / accumulation,NCI-H929 cells [3],induced G0/G1 arrest
same,sub-G1 population,NCI-H929 cells [3],increased
same,increase of accumulation in G1/G0 phase,"NCI-H929 cells [3]; 10^−7M, 72 hrs",7%
same,increase in apoptotic sub-G1 population,"NCI-H929 cells [3]; 10^−7M, 72 hrs, diluant control 4% sub-G1",21%
same,CD14 expression,NB-4 cells [4],did not induced CD14 expression
same,antiproliferative effect by MTT assay,[5],suppressed the cell growth in a dose-dependent manner; also recorded: sensitive
same,cells in sub-G1 population,NB-4 cells [6],5%
same,levels of 24.25(OH)2D3,24-hydroxylase [7],increased
same,antiproliferative effect by MTT assay,[8],suppressed the cell growth in a dose-dependent manner; also recorded: sensitive
arsenic trioxide,apoptotic cells by TUNEL assay,NCI-H929 cells [1],increased
same,CD14 expressing cells,wild type U937 cells,did not induce CD14 expression
same,cell surface CD14 expression,HL-60 cells,did not
same,levels of 24.25(OH)2D3,24-hydroxylase [2],decreased
same,G0/G1 arrest / accumulation,NCI-H929 cells [3],induced G0/G1 arrest
same,sub-G1 population,NCI-H929 cells [3],increased
same,CD14 expression,NB-4 cells [4],did not induced CD14 expression
same,antiproliferative effect by MTT assay,[5],suppressed the cell growth in a dose-dependent manner
same,cells in sub-G1 population,NB-4 cells [6],33%
same,levels of 24.25(OH)2D3,24-hydroxylase [7],decreased
same,antiproliferative effect by MTT assay,[8],suppressed the cell growth in a dose-dependent manner
